Key:
FXR [1] = target: T1, FXR (Homo sapiens, UniProt Q96RI1); assay: Bile acid receptor FXR coactivator binding assay (LanthaScreen TR-FRET); type: biochemical; details: for EC50: TR-FRET coactivator assay, four-parameter fit, read-out: EC50 of the compounds on FXR; for Emax: read-out: Relative activation effect
T1 construct: purchased Invitrogen
Description: The Invitrogen⋅LanthaScreen™ TR-FRET Farnesoid X Receptor Coactivator Assay kit was employed to determine the activation effect of the compounds on FXR.
After the receptor was incubated with the test compound at various concentrations at room temperature, the fluorescent-labeled coactivator short peptides and terbium-labeled antibody were added, and the FRET signal was detected after the reaction was complete at room temperature. The group without the receptor protein was employed as a blank, the activation effect (EC50) and maximum activation effect signal value (Emax) of the test compounds on FXR were calculated according to the four-parameter fitting equation: y=E min+(E max−E min)/(1+(x/EC50)^(−Hillslope))

FXR [2] = target: T2, FXR (Homo sapiens, UniProt Q96RI1); assay: Luciferase reporter gene assay (HEK293 cotransfected with FXR and human BSEP luciferase reporter); type: cell-based; details: for EC50: HEK293, 18 hours incubation; for Emax: HEK293, maximum activation effect, relative signal percentage, blank well = 100%
T2 construct: expressed in transfected cells; host or cells: HEK293
T2 sequence (Q96RI1 1-486): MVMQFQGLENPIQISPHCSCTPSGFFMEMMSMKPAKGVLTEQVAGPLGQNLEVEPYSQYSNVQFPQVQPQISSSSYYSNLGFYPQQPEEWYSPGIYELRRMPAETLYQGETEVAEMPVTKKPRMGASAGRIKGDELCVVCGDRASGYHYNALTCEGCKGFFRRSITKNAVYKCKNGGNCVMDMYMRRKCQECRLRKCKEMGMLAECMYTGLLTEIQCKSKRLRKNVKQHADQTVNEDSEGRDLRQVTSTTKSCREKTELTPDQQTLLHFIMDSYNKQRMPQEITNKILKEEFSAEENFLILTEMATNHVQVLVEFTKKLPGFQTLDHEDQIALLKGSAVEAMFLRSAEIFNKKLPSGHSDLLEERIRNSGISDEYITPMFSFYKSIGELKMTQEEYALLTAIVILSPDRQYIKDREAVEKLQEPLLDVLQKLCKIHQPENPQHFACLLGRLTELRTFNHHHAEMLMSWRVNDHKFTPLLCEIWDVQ
Description: Human embryonic kidney cells HEK293 were cultured in a DMEM medium containing 10% FBS. Plasmids were cotransfected to allow the cells to have over expression of FXR and human BSEP luciferase reporter genes. The transfected cells were digested, resuspended, counted, and plated in a multi-well plate. 10 μL of the test compound at various concentrations was added to the multi-well plate to result in final concentrations of 64 μM, 16 μM, 4 μM, 1 μM, 0.25 μM, 0.0625 μM, 0.0156 μM, 0.0039 μM, 0.000975 μM, 0.000244 μM, 0 μM, and the final concentration of DMSO was 0.5%. After the test compound was incubated with the cells for 18 hours, the Brigh-Glo™ detection reagent was added, and the chemical light unit value (RLU) was detected by a multifunctional automatic microplate reader. Taking the signal value of the blank well (without the test compound) as 100%, the relative signal percentage (%) at each concentration of the test compound was calculated. The SigmaPlot 10 software was employed to fit the EC50 and the maximum activation effect Emax (relative signal percentage) of the test compounds using a four-parameter model.

[3] = Pharmacokinetics (PK) and liver tissue distribution in rats; type: in vivo, rat
Description: The test compound was administered to male SD rats by intravenous (IV) and by gavage (PO), and the pharmacokinetics and liver tissue distribution characteristics of the test compound were evaluated. The doses of the IV and PO administration were respectively 1 mg/kg and 5 mg/kg. The vehicle for IV was 5% DMSO:5% Solutol:90% physiological saline, and the vehicle for PO was 0.5% MC. Blood and liver were collected at various time points after the IV and PO administration. The blood was treated with EDTA. K2 for anticoagulation, and was centrifuged to obtain a plasma sample; the liver was homogenized and stored at −80° C. The plasma and liver samples were analyzed by LC-MS/MS after being subjected to protein precipitation.
By employing the WinNonlin 6.3 software, the pharmacokinetic parameters were calculated according to a non-compartment model.

[4] = IV, 1 mg/kg, male SD rats, plasma
[5] = PO, 5 mg/kg, male SD rats, blood
[6] = PO, 5 mg/kg, male SD rats, liver

| Structure (SMILES) | EC50 (FXR [1]) [nM] | EC50 (FXR [2]) [nM] | Emax (FXR [2]) [%] | Emax (FXR [1]) [%] | other results |
| --- | --- | --- | --- | --- | --- |
| O=C(O)c1cccc(-c2csc(N3CCC(OCc4c(-c5c(Cl)cccc5Cl)noc4C4CC4)CC3)n2)c1 [Compound C1, 3-(2-(4-((5-cyclopropyl-3-(2,6-dichlorophenyl)isoxazol-4-yl)methoxy)piperidin-1-yl)thiazol-4-yl)benzoic acid] | 178 ± 21 |  |  |  |  |
| O=C(O)c1ccc(-c2csc(N3CCC(OCc4c(-c5c(Cl)cccc5Cl)noc4C4CC4)CC3)n2)cc1 [Compound C2, 4-(2-(4-((5-cyclopropyl-3-(2,6-dichlorophenyl)isoxazol-4-yl)methoxy)piperidin-1-yl)thiazol-4-yl)benzoic acid] | 12 ± 4 | 20 ± 10 | 248 | 101 | AUClast [3, 4]: 2409 ± 108 ng·h/mL; Cmax [3, 4]: 4343 ± 172 ng/mL; AUClast (blood) [3, 5]: 1177 ± 304 ng·h/mL; Cmax (blood) [3, 5]: 252 ± 30 ng/mL; AUClast (liver) [3, 6]: 14941 ± 4276 ng·h/g; Cmax (liver) [3, 6]: 3367 ± 830 ng/g; liver enrichment ([3]; PO, 5 mg/kg, rats, liver versus blood exposure): significant liver enrichment effect |
| Cn1nc(C(=O)O)cc1-c1ccc(N2CCC(OCc3c(-c4c(Cl)cccc4Cl)noc3C3CC3)CC2)cc1 [Compound C3, 5-(4-(4-((5-cyclopropyl-3-(2,6-dichlorophenyl)isoxazol-4-yl)methoxy)piperidin-1-yl)phenyl)-1-methyl-1H-pyrazole-3-carboxylic acid] | 42 ± 7 |  |  |  |  |
| Cn1nc(-c2ccc(N3CCC(OCc4c(-c5c(Cl)cccc5Cl)noc4C4CC4)CC3)cc2)cc1C(=O)O [Compound C4, 3-(4-(4-((5-cyclopropyl-3-(2,6-dichlorophenyl)isoxazol-4-yl)methoxy)piperidin-1-yl)phenyl)-1-methyl-1H-pyrazole-5-carboxylic acid] | 10 ± 1 | 40 ± 10 | 255 | 102 |  |
| Cn1nc(C(=O)O)cc1-c1cccc(N2CCC(OCc3c(-c4c(Cl)cccc4Cl)noc3C3CC3)CC2)c1 [Compound C6, 5-(3-(4-((5-cyclopropyl-3-(2,6-dichlorophenyl)isoxazol-4-yl)methoxy)piperidin-1-yl)phenyl)-1-methyl-1H-pyrazole-3-carboxylic acid] | 206 ± 18 |  |  |  |  |
| O=C(O)c1ccc(-c2csc(N3[C@@H]4CC[C@H]3C[C@@H](OCc3c(-c5ccccc5OC(F)(F)F)noc3C3CC3)C4)n2)s1 [Compound C35, 5-(2-((1R,3r,5S)-3-((5-cyclopropyl-3-(2-(trifluoromethoxy)phenyl)isoxazol-4-yl)methoxy)-8-azabicyclo[3.2.1]octan-8-yl)thiazol-4-yl)thiophene-2-carboxylic acid] | 13 ± 3 | 91 ± 38 | 378 | 152 |  |
| Cc1cc(C(=O)O)ccc1-c1csc(N2[C@@H]3CC[C@H]2C[C@@H](OCc2c(-c4c(Cl)cccc4Cl)noc2C2CC2)C3)n1 [Compound C37, 4-(2-((1R,3r,5S)-3-((5-cyclopropyl-3-(2,6-dichlorophenyl)isoxazol-4-yl)methoxy)-8-azabicyclo[3.2.1]octan-8-yl)thiazol-4-yl)-3-methylbenzoic acid] | 15 ± 1 | 6 ± 2 | 411 | 139 |  |
| O=C(O)c1ccc(-c2csc(N3[C@@H]4CC[C@H]3C[C@@H](OCc3c(-c5ccccc5OC(F)(F)F)noc3C3CC3)C4)n2)cc1 [Compound C41, 4-(2-((1R,3r,5S)-3-((5-cyclopropyl-3-(2-(trifluoromethoxy)phenyl)isoxazol-4-yl)methoxy)-8-azabicyclo[3.2.1]octan-8-yl)thiazol-4-yl)benzoic acid] |  | 58 ± 23 | 252 |  |  |
| Cc1cc(C(=O)O)ccc1-c1csc(N2[C@@H]3CC[C@H]2C[C@@H](OCc2c(-c4ccccc4OC(F)(F)F)noc2C2CC2)C3)n1 [Compound C42, 4-(2-((1R,3r,5S)-3-((5-cyclopropyl-3-(2-(trifluoromethoxy)phenyl)isoxazol-4-yl)methoxy)-8-azabicyclo[3.2.1]octan-8-yl)thiazol-4-yl)-3-methylbenzoic acid] |  | 33 ± 18 | 320 |  |  |
| O=C(O)c1ccc(-c2csc(N3[C@@H]4CC[C@H]3C[C@@H](OCc3c(-c5ccccc5OC(F)(F)F)noc3C3CC3)C4)n2)c(F)c1 [Compound C43, 4-(2-((1R,3r,5S)-3-((5-cyclopropyl-3-(2-(trifluoromethoxy)phenyl)isoxazol-4-yl)methoxy)-8-azabicyclo[3.2.1]octan-8-yl)thiazol-4-yl)-3-fluorobenzoic acid] |  | 37 ± 19 | 343 |  |  |
| O=C(O)c1ccc(-c2csc(N3[C@@H]4CC[C@H]3C[C@@H](OCc3c(-c5ccccc5OC(F)(F)F)noc3C3CC3)C4)n2)cc1F [Compound C44, 4-(2-((1R,3r,5S)-3-((5-cyclopropyl-3-(2-(trifluoromethoxy)phenyl)isoxazol-4-yl)methoxy)-8-azabicyclo[3.2.1]octan-8-yl)thiazol-4-yl)-2-fluorobenzoic acid] | 22 ± 5 | 21 ± 6 | 322 | 137 |  |
| O=C(O)c1ccc(-c2csc(N3[C@@H]4CC[C@H]3C[C@@H](OCc3c(-c5ccccc5OC(F)(F)F)noc3C3CC3)C4)n2)c(C(F)(F)F)c1 [Compound C45, 4-(2-((1R,3r,5S)-3-((5-cyclopropyl-3-(2-(trifluoromethoxy)phenyl)isoxazol-4-yl)methoxy)-8-azabicyclo[3.2.1]octan-8-yl)thiazol-4-yl)-3-(trifluoromethyl)benzoic acid] | 110 ± 21 |  |  | 113 |  |
| O=C(O)c1cc(-c2csc(N3[C@@H]4CC[C@H]3C[C@@H](OCc3c(-c5ccccc5OC(F)(F)F)noc3C3CC3)C4)n2)cs1 [Compound C47, 4-(2-((1R,3r,5S)-3-((5-cyclopropyl-3-(2-(trifluoromethoxy)phenyl)isoxazol-4-yl)methoxy)-8-azabicyclo[3.2.1]octan-8-yl)thiazol-4-yl)thiophene-2-carboxylic acid] |  | 19 ± 7 | 370 |  |  |
| O=C(O)c1csc(-c2csc(N3[C@@H]4CC[C@H]3C[C@@H](OCc3c(-c5ccccc5OC(F)(F)F)noc3C3CC3)C4)n2)c1 [Compound C48, 5-(2-((1R,3r,5S)-3-((5-cyclopropyl-3-(2-(trifluoromethoxy)phenyl)isoxazol-4-yl)methoxy)-8-azabicyclo[3.2.1]octan-8-yl)thiazol-4-yl)thiophene-3-carboxylic acid] |  | 39 ± 17 | 382 |  |  |
| O=C(O)c1ccc(-c2csc(N3[C@@H]4CC[C@H]3C[C@@H](OCc3c(-c5ccccc5OC(F)(F)F)noc3C3CC3)C4)n2)cn1 [Compound C50, 5-(2-((1R,3r,5S)-3-((5-cyclopropyl-3-(2-(trifluoromethoxy)phenyl)isoxazol-4-yl)methoxy)-8-azabicyclo[3.2.1]octan-8-yl)thiazol-4-yl)picolinic acid] | 31 ± 8 |  |  | 177 |  |

Source: patent publication US11667629B2, “Isoxazole derivative, preparation method therefor, and use thereof” (SICHUAN KELUN-BIOTECH BIOPHARMACEUTICAL CO., LTD., priority 2017, dated 2023)
